Data: ChEMBL document CHEMBL4814071, “Synthesis and antibacterial study of cell-penetrating peptide conjugated trifluoroacetyl and thioacetyl lysine modified peptides” (Eur J Med Chem, 2021)
Where a name gives a salt, the structure may show the parent alone. Each block holds one compound with its values, some of them ahead of it. Activity calls are given as the source filed them. The rule behind the calls is not given here. *1 amine or outer side, *2 acyl side, *3 side chain or, on linkers, in order; H or OH if unused. Where a SMILES comes first, the peptide text is derived from it. Bridges are numbered along the chain shown (N, C = ends). Side-chain parts run from the residue outwards. [ ]: non-standard residue; d: D form. The star is where a group is joined. NH(2-Me-phenyl) = Cc1ccccc1N*; X1 = CC[C@H](C)CCCCC(=O)*; Dab = NCC[C@H](N)C(=O)O; CO = O=C([*:1])[*:2]; Tfa = O=C(C(F)(F)F)*

What was measured:
[1] = tested on: Lipid bilayer; test: Binding affinity to bacterial inner membrane mimic POPE/POPG (3:1) LUVs assessed as increase in intensity by one-dimensional 19F NMR based analysis
[2] = tested on: Cell membrane; test: Disruption of membrane integrity in Staphylococcus aureus at 2 times MIC by TEM analysis
[3] = tested on: Cell membrane; test: Disruption of membrane integrity in Escherichia coli assessed as cellular leakage at 2 times MIC by TEM analysis
[4] = tested on: Cell membrane; test: Disruption of membrane integrity in Escherichia coli at 2 times MIC by TEM analysis
[5] = tested on: Staphylococcus aureus; test: Antibacterial activity against Staphylococcus aureus assessed as reduction in microbial growth after 24 hrs by microplate reader method; format: functional
[6] = tested on: Escherichia coli; test: Synergistic antibacterial activity against Escherichia coli assessed as fractional inhibitory concentration index incubated for 24 hrs in presence of Polymyxin B; format: functional
[7] = tested on: Staphylococcus aureus; test: Synergistic antibacterial activity against Staphylococcus aureus assessed as fractional inhibitory concentration index incubated for 24 hrs in presence of streptomycin; format: functional
[8] = tested on: Pseudomonas aeruginosa; test: Antibacterial activity against Pseudomonas aeruginosa assessed as reduction in microbial growth after 24 hrs by microplate reader method; format: functional
[9] = Inhibition of transcriptional machinery using Puc19-lacCONS plasmid DNA and Escherichia coli RNA polymerase-sigma70 holoenzyme at 10 uM incubated for 35 mins followed by NTP addition for 30 mins by spectrofluorometer analysis; format: functional; conditions: time 65.0 min
[10] = Induction of yeast killing at 50 uM incubated for 72 hrs in presence of Ura3 and absence of FOA by absorbance based analysis; conditions: saccharomyces cerevisiae
[11] = tested on: Staphylococcus aureus; test: Antibiofilm activity against Staphylococcus aureus assessed as biofilm eradication at 2XMBEC incubated for 12 hrs by SYTO9/PI staining based microscopic analysis; format: functional, organism-based
[12] = tested on: Pseudomonas aeruginosa; test: Synergistic antibacterial activity against Pseudomonas aeruginosa assessed as fractional inhibitory concentration index incubated for 24 hrs in presence of Polymyxin B; format: functional
[13] = tested on: Escherichia coli; test: Potentiation of polymyxin B-induced antibacterial activity against Escherichia coli assessed as polymyxin B MIC incubated for 24 hrs by microplate reader method; format: functional
[14] = Hemolytic activity against mouse RBC at 1000 uM measured after 1 hr by microplate reader analysis; format: cell-based, Erythrocyte; conditions: mouse red blood cells (erythrocytes), read-out: Activity
[15] = tested on: Lipid bilayer; test: Binding affinity to bacterial inner membrane mimic DOPE/DOPG (3:1) large unilamellar vesicles assessed as calcein leakage at 2.5 uM by fluorescence based assay
[16] = tested on: Pseudomonas aeruginosa; test: Antibacterial activity against Pseudomonas aeruginosa assessed as reduction in microbial growth after 24 hrs in presence of polymyxin B by microplate reader method; format: functional
[17] = tested on: Lipid bilayer; test: Binding affinity to bacterial inner membrane mimic DOPE/DOPG (3:1) large unilamellar vesicles assessed as calcein leakage at 20 uM by fluorescence based assay
[18] = tested on: Escherichia coli; test: Antibiofilm activity against Escherichia coli assessed as biofilm eradication incubated for 24 hrs by crystal violet staining assay; format: functional
[19] = tested on: Escherichia coli; test: Antibacterial activity against Escherichia coli assessed as reduction in microbial growth after 24 hrs by microplate reader method; format: functional
[20] = tested on: Pseudomonas aeruginosa; test: Potentiation of polymyxin B-induced antibacterial activity against Pseudomonas aeruginosa assessed as polymyxin B MIC incubated for 24 hrs by microplate reader method; format: functional
[21] = tested on: Cell membrane; test: Disruption of membrane integrity in Escherichia coli at 2 times MIC measured after 20 mins by SEM analysis
[22] = tested on: Cell membrane; test: Disruption of membrane integrity in Staphylococcus aureus at 2 times MIC measured after 20 mins by SEM analysis
[23] = tested on: Escherichia coli; test: Antibacterial activity against Escherichia coli assessed as reduction in microbial growth after 24 hrs in presence of polymyxin B by microplate reader method; format: functional
[24] = tested on: Escherichia coli; test: Antibiofilm activity against Escherichia coli assessed as as inhibition of biofilm formation incubated for 48 hrs by crystal violet staining assay; format: functional
[25] = tested on: Staphylococcus aureus; test: Antibiofilm activity against Staphylococcus aureus assessed as biofilm eradication incubated for 24 hrs by crystal violet staining assay; format: functional
[26] = target: NAD-dependent histone deacetylase SIR2 (Saccharomyces cerevisiae S288c) (UniProt P06700); test: Inhibition of yeast sirtuin2-mediated Ura3 transcriptional silencing at telomeric locus assessed as yeast killing at 50 uM incubated for 72 hrs in presence of FOA by absorbance based analysis
[27] = tested on: Staphylococcus aureus; test: Antibacterial activity against Staphylococcus aureus assessed as reduction in microbial growth after 24 hrs in presence of streptomycin by microplate reader method; format: functional
[28] = tested on: Staphylococcus aureus; test: Potentiation of streptomycin-induced antibacterial activity against Staphylococcus aureus assessed as streptomycin MIC incubated for 24 hrs by microplate reader method; format: functional
[29] = tested on: Escherichia coli; test: Antibiofilm activity against Escherichia coli assessed as biofilm eradication at 2XMBEC incubated for 12 hrs by SYTO9/PI staining based microscopic analysis; format: functional, organism-based
[30] = tested on: HeLa; test: Cytotoxicity against human HeLa cells assessed as reduction in cell viability incubated for 48 hrs by MTT assay; format: cell-based
[31] = tested on: Staphylococcus aureus; test: Potentiation of streptomycin-induced antibacterial activity against Staphylococcus aureus assessed as fold change in streptomycin MIC incubated for 24 hrs by microplate reader method; format: functional
[32] = tested on: Staphylococcus aureus; test: Antibiofilm activity against Staphylococcus aureus assessed as inhibition of biofilm formation incubated for 48 hrs by crystal violet staining assay; format: functional
[33] = tested on: Lipid bilayer; test: Binding affinity to mammalian membrane mimic DOPC/40% cholesterol assessed as calcein leakage at 20 uM by fluorescence based assay; format: ADME
[34] = tested on: BE(2)-C; test: Cytotoxicity against human BE(2)-C cells assessed as reduction in cell viability incubated for 48 hrs by MTT assay; format: cell-based

NAD-dependent histone deacetylase SIR2 (Saccharomyces cerevisiae S288c), sequence (P06700 whole entry): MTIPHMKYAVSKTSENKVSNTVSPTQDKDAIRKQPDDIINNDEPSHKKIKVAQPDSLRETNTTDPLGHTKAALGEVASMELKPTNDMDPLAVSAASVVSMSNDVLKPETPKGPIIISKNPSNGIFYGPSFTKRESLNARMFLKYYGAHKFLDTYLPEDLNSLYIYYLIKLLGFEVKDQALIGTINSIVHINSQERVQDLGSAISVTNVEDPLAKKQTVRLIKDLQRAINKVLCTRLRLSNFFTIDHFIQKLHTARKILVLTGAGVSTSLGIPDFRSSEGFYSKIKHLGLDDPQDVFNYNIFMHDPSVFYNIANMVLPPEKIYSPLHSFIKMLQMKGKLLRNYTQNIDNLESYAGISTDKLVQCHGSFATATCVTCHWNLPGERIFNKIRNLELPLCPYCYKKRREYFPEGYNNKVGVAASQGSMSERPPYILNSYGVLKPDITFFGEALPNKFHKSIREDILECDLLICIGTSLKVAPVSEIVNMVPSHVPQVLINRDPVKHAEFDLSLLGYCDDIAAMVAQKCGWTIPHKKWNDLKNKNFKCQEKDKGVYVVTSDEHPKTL

Activity [1]: Active
Activity [2]: Active
Activity [3]: Active
Activity [4]: Active
MIC [5]: 0.2 µM
MIC [8]: 25 µM
MIC [13]: 0.1 µM
Activity [15]: 90%
MIC [16]: 12.5 µM
Activity [17]: Active
MIC [19]: 1.5 µM
MIC [20]: 0.05 µM
Activity [21]: Active
Activity [22]: Active
MIC [23]: 0.63 µM
MIC [27]: 0.05 µM
MIC [28]: 0.38 µM
Activity [33]: < 20%
Structure (SMILES): CC(=O)N[C@@H](Cc1ccc(O)cc1)C(=O)NCC(=O)N[C@@H](CCCNC(=N)N)C(=O)N[C@@H](CCCCN)C(=O)N[C@@H](CCCCN)C(=O)N[C@@H](CCCNC(=N)N)C(=O)N[C@@H](CCCNC(=N)N)C(=O)N[C@@H](CCC(N)=O)C(=O)N[C@@H](CCCNC(=N)N)C(=O)N[C@@H](CCCNC(=N)N)C(=O)N[C@@H](CCCNC(=N)N)C(=O)NCC(=O)NCC(=O)NCC(=O)N[C@@H](CCCCN)C(=O)NCC(=O)N[C@@H](CC(C)C)C(=O)N[C@@H](CCCNC(=N)N)C(=O)N[C@@H](CCCCNC(=O)C(F)(F)F)C(=O)N[C@@H](Cc1ccccc1)C(=O)NCC(=O)N[C@@H](C)C(=O)N[C@@H](CCCCN)C(=O)N[C@@H](CCCNC(=N)N)C(=O)N[C@@H](Cc1cnc[nH]1)C(=O)N[C@@H](CCCNC(=N)N)C(=O)N[C@@H](CS)C(=O)O (Ac-YGRKKRRQRRRGGGKGLRK(Tfa)FGAKRHRC-OH)
fractional inhibitory concentration index (FICI) [6]: 0.73
fractional inhibitory concentration index (FICI) [7]: 0.22
inhibition [9]: 100%
Activity [10]: Toxic
Activity [11]: Active
fractional inhibitory concentration index (FICI) [12]: 0.42
hemolysis at 1 h, 1000 µM [14]: < 5%
MBEC [18]: 62.5 µM
MBIC [24]: 15.6 µM
MBEC [25]: 3.2 µM
inhibition [26]: Active
Activity [29]: Active
IC50 [30]: 20.2 µM
fold change (FC) [31]: 6
MBIC [32]: 0.8 µM
IC50 [34]: 17.4 µM

MIC [5]: 0.2 µM
MIC [8]: 25 µM
MIC [19]: 1.5 µM
Structure (SMILES): CC(=O)N[C@@H](Cc1ccc(O)cc1)C(=O)NCC(=O)N[C@@H](CCCNC(=N)N)C(=O)N[C@@H](CCCCN)C(=O)N[C@@H](CCCCN)C(=O)N[C@@H](CCCNC(=N)N)C(=O)N[C@@H](CCCNC(=N)N)C(=O)N[C@@H](CCC(N)=O)C(=O)N[C@@H](CCCNC(=N)N)C(=O)N[C@@H](CCCNC(=N)N)C(=O)N[C@@H](CCCNC(=N)N)C(=O)NCC(=O)NCC(=O)NCC(=O)N[C@@H](CCCCN)C(=O)NCC(=O)N[C@@H](CC(C)C)C(=O)N[C@@H](CCCNC(=N)N)C(=O)N[C@@H](CCCCNC(=O)Nc1ccccc1C)C(=O)N[C@@H](Cc1ccccc1)C(=O)NCC(=O)N[C@@H](C)C(=O)N[C@@H](CCCCN)C(=O)N[C@@H](CCCNC(=N)N)C(=O)N[C@@H](Cc1cnc[nH]1)C(=O)N[C@@H](CCCNC(=N)N)C(=O)N[C@@H](CS)C(=O)O (Ac-YGRKKRRQRRRGGGKGLRK([CO-NH(2-Me-phenyl)])FGAKRHRC-OH)

MIC [8]: 0.15 µM
MIC [19]: 0.09 µM
Structure (SMILES): CC[C@H](C)CCCCC(=O)N[C@@H](CCN)C(=O)N[C@H](C(=O)N[C@@H](CCN)C(=O)N[C@H]1CCNC(=O)[C@H]([C@@H](C)O)NC(=O)[C@H](CCN)NC(=O)[C@H](CCN)NC(=O)[C@H](CC(C)C)NC(=O)[C@@H](Cc2ccccc2)NC(=O)[C@H](CCN)NC1=O)[C@@H](C)O (X1-[Dab]T[Dab][Dab][Dab][dF]L[Dab][Dab]T; lactam 4-C)

MIC [5]: 2.2 µM
Structure (SMILES): CN[C@@H]1[C@H](O[C@H]2[C@H](O[C@H]3[C@H](O)[C@@H](O)[C@H](N=C(N)N)[C@@H](O)[C@@H]3N=C(N)N)O[C@@H](C)[C@]2(O)C=O)O[C@@H](CO)[C@H](O)[C@H]1O [STREPTOMYCIN]
